Assay results published in patent publication US8273777B2, “Glucokinase activators and methods of using same” (Bristol-Meyer Squibb Company, priority 2007, dated 2012).

test system: male DIO (diet-induced obese) C57BL/6J mice; assay: Oral glucose tolerance test (OGTT) in DIO mice; assay type: in vivo; details: 30 mg/kg dose, given orally 60 min before glucose 2 g/kg, ΔAUC 0-120 min
Procedure: In Vivo Studies: Oral Glucose Tolerance Test (OGTT)
Oral glucose tolerance tests were carried out on male DIO (diet-induced obese) C57BL/6J mice fed a high fat diet (60% kcal from fat) for 26 weeks prior to experimentation. Mice were fasted overnight before use for experiments. A test compound or vehicle (10% dimethyl acetamide +10% ethanol +10% Cremophore +70% water) was given orally 60 min before oral administration of a glucose solution at a dose of 2 g/kg body weight (oral glucose tolerance test; OGTT). Blood glucose levels were measured from tail-bled samples taken at different time points before and after administration of glucose (time course of 2 hours). A time curve of the blood glucose was generated and the change from baseline area-under-the curve (ΔAUC) from 0-120 min was calculated (the time glucose administration being time zero).

In the case of `COC[C@H](C)Oc1cc(NC(=O)c2c[nH]cn2)cc(Oc2ccc(S(C)(=O)=O)cc2)c1` [Example 6], the “reduction of glucose AUC levels in OGTT” value is reported as 66%.

biological target: T1, human glucokinase (GK) (Homo sapiens, UniProt P35557); assay: Glucokinase tandem enzymatic assay; assay type: biochemical; details: 12 mM glucose; EC50 = concentration to achieve 50% of full activation
T1 construct: Full-length human hepatic GK (untagged) was expressed in BL21 STAR (DE3)pLysS cells; made in house; host or cells: E. coli BL21 STAR (DE3)pLysS (Invitrogen)
T1 sequence (P35557 1-466 isoform P35557-2): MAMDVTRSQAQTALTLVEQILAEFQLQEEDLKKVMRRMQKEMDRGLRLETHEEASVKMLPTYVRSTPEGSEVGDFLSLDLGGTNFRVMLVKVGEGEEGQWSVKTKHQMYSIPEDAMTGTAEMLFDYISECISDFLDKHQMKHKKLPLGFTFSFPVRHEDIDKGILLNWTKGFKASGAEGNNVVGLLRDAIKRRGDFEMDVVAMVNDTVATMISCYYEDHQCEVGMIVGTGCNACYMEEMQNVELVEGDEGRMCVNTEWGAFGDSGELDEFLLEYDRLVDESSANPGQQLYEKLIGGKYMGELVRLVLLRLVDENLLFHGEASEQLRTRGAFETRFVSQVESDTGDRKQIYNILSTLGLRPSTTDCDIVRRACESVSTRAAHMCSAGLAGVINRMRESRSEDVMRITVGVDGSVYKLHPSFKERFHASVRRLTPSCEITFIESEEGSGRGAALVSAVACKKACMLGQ
Procedure: Glucokinase Tandem Enzymatic Assay
Enzymatic activity of human glucokinase (GK) was measured by incubating GK, ATP, and glucose for discrete time periods followed by quenching with EDTA (ethylenediamine tetra-acetic acid). Relative amounts of product glucose-6-phosphate (G6P) were measured by then running a detection assay using G6P dehydrogenase and measuring the conversion of ThioNAD (thio-nicotinamide adenine dinucleotide) to ThioNADH (thio-dihydronicotinamide adenine dinucleotide) at a wavelength of 405 nm. This ‘uncoupled’ enzymatic reaction is denoted as the GK ‘tandem’ assay. Activation of GK by compounds can be assessed using this assay. The GK tandem assay protocol described below was followed using a range of activator compound concentrations from 0 to 100 μM at 5 and 12 mM of glucose. Human full-length glucokinase (GK, 15 nM) was incubated with 5 or 12 mM glucose in a 384 well black microtiter plate with a clear bottom. To initiate the GK reaction, magnesium-ATP (3 mM final concentration) was added to GK in buffer (final buffer conditions of 25 mM HEPES buffer, pH 7.1, containing 1 mM dithiothreitol and 5% DMSO). The total reaction volume was 20 μL The reaction was allowed to proceed for ten minutes and was then quenched with 5 μL EDTA; 45 mM final). The components of the detection reaction, ThioNAD and G6PDH (glucose-6-phosphate dehydrogenase) (final concentrations of 650 μM and 3.33 Units, respectively), were then added together in a volume of 25 μL (to give a total volume of 50 μL). Absorbance measurements were made at 405 nm on a Spectramax Plus 384 absorbance plate reader (Molecular Devices). Absorbance was read, background glucose-6-phosphate levels were subtracted, after which activation was calculated as a percentage of control activity. Control activity was determined using GK in the presence of vehicle (DMSO), with background glucose-6-phosphate subtracted. Background glucose-6-phosphate was determined by pre-quenching GK with EDTA prior to reaction initiation with ATP.
Expression and Purification of Human GK
Full-length human hepatic GK (untagged) was expressed in BL21 STAR (DE3)pLysS cells (Invitrogen) at 25° C. as described by Mookhtiar et al. (1). The protein was purified essentially as described by Lange (2) with a slight modification. Briefly, cell pellets were lysed via three rounds of freezing and thawing, centrifuged at 15000 g for clarification, and precipitated with 40-65% (NH4)2SO4. The resulting pellet was resuspended in buffer, dialyzed, and applied directly to a Q-Sepharose (Sigma) column followed by elution with a linear 100-600 mM KCl gradient. GK containing fractions were pooled, dialyzed overnight vs. 25 mM Hepes pH 7.2/1 mM MgCl2/1 mM EDTA/0.1 M KCl/1 mM DTT, then dialyzed again with same buffer with 10% glycerol added.

Going from `COC[C@H](C)Oc1cc(NC(=O)c2nc3ccccc3s2)cc(Oc2ccc(S(C)(=O)=O)cc2)c1` [Example 5] to `COC[C@H](C)Oc1cc(NC(=O)c2ncc(C)s2)cc(Oc2ccc(S(C)(=O)=O)cc2)c1` [Example 18], the EC50 falls from 165 nM to 67 nM (2.5-fold).

Compared with `COC[C@H](C)Oc1cc(NC(=O)c2c[nH]cn2)cc(Oc2ccc(S(C)(=O)=O)cc2)c1` [Example 6], `COC[C@H](C)Oc1cc(NC(=O)c2cc[nH]n2)cc(Oc2ccc(S(C)(=O)=O)cc2)c1` [Example 8] is 2.7-fold higher in EC50: 191 nM for the first, 513 nM for the second. The first is the more potent here.

Compared with `Cc1cnc(C(=O)Nc2cc(Oc3ccc(S(C)(=O)=O)cc3)cc(O[C@@H](C)CO)c2)s1` [Example 22], `CS(=O)(=O)c1ccc(Oc2cc(NC(=O)c3c[nH]cn3)cc(Oc3ccc(S(C)(=O)=O)cc3)c2)cc1` [Example 31] is 7.5-fold higher in EC50: 77 nM for the first, 575 nM for the second. The first is the more potent here.

same assay, conditions: 12 mM glucose; expressed as % of basal activation; EC50 could not be calculated; read-out: Maximal activation (%) Human Glucokinase @ 12 mM Glucose

Compared with `COC[C@H](C)Oc1cc(NC(=O)c2ncn[nH]2)cc(Oc2ccc(S(C)(=O)=O)cc2)c1` [Example 7], `CS(=O)(=O)c1ccc(Oc2cc(NC(=O)c3nccs3)cc(C(F)(F)F)c2)cc1` [Example 37] is higher in Emax: 131% for the first, 163% for the second.
